Counter-ions that a name gives are not always drawn.

The subject of the first assay is Desulfovibrio desulfuricans G100A. Briefly: microbe, parasite or virus in culture. Type of assay: cell-based.
Details: not given
With `Nc1cccc2c1C(=O)c1ccccc1C2=O` [1-Aminoanthraquinone], the “inhibition of sulfide production (in words)” value is “inhibited sulfide formation”. The same measure, in the same setting: the value for `CC(C)NC(=N)NC(=N)Nc1cccc2c1C(=O)c1ccccc1C2=O` [N-[1-(9,10-dihydro-9,10-dioxo)anthracenyl]-N'-(1-methylethyl)imidodicarbonimidic diamide hydrochloride] was “inhibited sulfide formation”.

The assay is the same for the next values; noted with them: Desulfovibrio desulfuricans, G100A, read-out: % Inhib. (inhibition of sulfide production).
In the case of `Cc1cc(Cl)c2c(c1N)C(=O)c1ccccc1C2=O` [1-Amino-4-chloro-2-methylanthraquinone], the inhibition at 30 ppm is 5.2%.

Regarding `Cc1cc(O)c2c(c1O)C(=O)c1cc(O)cc(O)c1C2=O` [Catenarin, 1,4,5,7-Tetrahydroxy-2-methyl-9,10-anthracenedione], the inhibition at 10 ppm came out at 37.5%. As for `Nc1c(S(=O)(=O)O)cc(Nc2ccccc2)c2c1C(=O)c1ccccc1C2=O` [Acid blue 25, 1-Amino-9,10-dihydro-9,10-dioxo-4-(phenylamino)-2-anthracenesulfonic acid, Na salt], the inhibition at 10 ppm was 26%. Consider `CC(=O)N(C)c1ccc(Nc2cc(S(=O)(=O)O)c(N)c3c2C(=O)c2ccccc2C3=O)cc1` [Acid blue 41, 4-[[4-(Acetylmethylamino)phenyl]amino]-1-amino-9,10-dihydro-9,10-dioxo-2-anthracenesulfonic acid, Na salt], for which the inhibition at 10 ppm was 0%. On to `Oc1ccc2c(O)c3ccccc3cc2c1O` [Anthrarobin, 1,2,10-Anthracenetriol], for which the inhibition at 10 ppm came out at 44.4%. As to `Nc1ccc2c(c1)C(=O)c1ccc(N)cc1C2=O` [2,6-Diaminoanthraquinone], the inhibition at 10 ppm is 27.2%. On the same count and under the same terms, as for `O=C1c2c(O)ccc(O)c2C(=O)c2c(O)c(O)c(O)c(O)c21` [Alizarin cyanin, 1,2,3,4,5,8-Hexahydroxyanthraquinone], the figure is 40.6%; as for `Nc1cccc2c1C(=O)c1ccccc1C2=O` [1-Aminoanthraquinone], 28.4%; as for `Nc1ccc2c(c1)C(=O)c1ccccc1C2=O` [2-Aminoanthraquinone], 30.4%.

With `Cc1ccc2c(c1[N+](=O)[O-])C(=O)c1ccccc1C2=O` [2-Methyl-1-nitroanthraquinone], the inhibition at 30 ppm worked out at 50%. With `Cc1cc(O)c2c(c1)C(=O)c1cc(O)cc(O)c1C2=O` [Emodin, 6-Methyl-1,3,8-trihydroxyanthraquinone], the inhibition at 30 ppm was found to be 2.6%. Take `Cc1ccc(Nc2cccc3c2C(=O)c2cccc(Nc4ccc(C)cc4S(=O)(=O)O)c2C3=O)c(S(=O)(=O)O)c1` [Alizarin violet 3R, 2,2'-[(9,10-Dihydro-9,10-dioxo-1,5-anthracenediyl)-diimino]bis[5-methylbenzenesulfonic acid], di Na salt]: the inhibition at 10 ppm amounted to 30.9%. With `CN(C)Cc1ccc(Nc2ccc(N)c3c2C(=O)c2ccccc2C3=O)cc1` [Basic Blue 47, 1-Amino-4-[4-[(dimethylamino)methyl]phenyl]amino-9,10-anthracenedione], the inhibition at 10 ppm turned out to be 37.2%. Turning to `O=C1c2ccccc2C(=O)c2c(O)c(S(=O)(=O)O)cc(O)c21` [9,10-Dihydro-1,4-dihydroxy-9,10-dioxo-2-anthracenesulfonic acid], the inhibition at 30 ppm amounted to 7.8%. Regarding `CNc1ccc(Nc2ccc(C)cc2S(=O)(=O)O)c2c1C(=O)c1ccccc1C2=O` [Alizarine astrol B-CF, 2-[[9,10-Dihydro-4-(methylamino)-9,10-dioxo-1-anthracenyl]amino]-5-methyl-benzenesulfonic acid, monosodium salt], the inhibition at 10 ppm turned out to be 2.6%. The same measure, in the same setting: the value for `O=C1c2ccccc2C(=O)c2cc(S(=O)(=O)O)ccc21` [Anthraquinone-2-sulfonic acid sodium salt monohydrate] was 17%. Regarding `O=C1c2ccccc2C(=O)c2c1cccc2S(=O)(=O)O` [1-Anthraquinonesulfonic acid, Na salt], the inhibition at 30 ppm amounted to 3.9%. For `CCCCc1ccc(Nc2ccc(Nc3ccc(CCCC)cc3S(=O)(=O)O)c3c2C(=O)c2ccccc2C3=O)c(S(=O)(=O)O)c1` [Acid green 27, 2,2'-[(9,10-Dihydro-9,10-dioxo-1,4-anthracenediyl)-diimino]bis[5-butylbenzenesulfonic acid]], the inhibition at 10 ppm came out at 16.5%. With `Nc1cc(S(=O)(=O)O)c(O)c2c1C(=O)c1c(O)c(S(=O)(=O)O)cc(N)c1C2=O` [Acid blue 45, 4,8-Diamino-9,10-dihydro-1,5-dihydroxy-9,10-dioxo-2,6-anthracenedisulfonic acid, di Na salt], the inhibition at 10 ppm stood at 0%. As for `CC(=O)OC1C=CCC2C(=O)c3cccc(O)c3C(=O)C12` (racemic) [(+,-)-1-Acetoxy-8-hydroxy-1,4,4a,9a-tetrahydroanthraquinone], the inhibition at 10 ppm was 28.1%. Regarding `O=C1c2ccccc2C(=O)c2c(Nc3cccc4c3C(=O)c3ccccc3C4=O)cccc21` [Dianthrimide, 1,1'-Iminobis-9,10-anthracenedione], the inhibition at 30 ppm turned out to be 2.6%. For the molecule `Cc1ccc(Nc2ccc(Nc3ccc(C)cc3S(=O)(=O)O)c3c2C(=O)c2c(O)ccc(O)c2C3=O)c(S(=O)(=O)O)c1` [alizarine viridine, 2,2'-[(9,10-Dihydro-5,8-dihydroxy-9,10-dioxo-1,4-anthracenediyl)diimino]bis[5-methyl]benzenesulfonic acid], the inhibition at 30 ppm was determined as 2.6%. Take `CNc1ccc(Br)c2c1C(=O)c1ccccc1C2=O` [1-Bromo-4-(methylamino)anthraquinone]: the inhibition at 30 ppm was determined as 0%. With `COc1ccc(N)c2c1C(=O)c1ccccc1C2=O` [1-Amino-4-methoxyanthraquinone], the inhibition at 10 ppm worked out at 57.1%.

On to `Cc1ccc(Nc2ccc(Nc3ccc(C)cc3S(=O)(=O)O)c3c2C(=O)c2c(O)ccc(O)c2C3=O)c(S(=O)(=O)O)c1` [Acid green 41, 2,2'-[(9,10-Dihydro-5,8-dihydroxy-9,10-dioxo-1,4-anthracendiyl)diimino]bis[5-methylbenzenesulfonic acid], di Na salt], for which the inhibition at 10 ppm was found to be 17.8%.

Regarding `Cc1cc(O)c2c(c1O)C(=O)c1c(O)ccc(O)c1C2=O` [Cynodontin, 1,4,5,8-Tetrahydroxy-2-methyl-9,10-anthracenedione], the inhibition at 10 ppm was 34.4%. As to `COc1cc(O)c2c(c1)C(=O)c1cc(C)cc(O)c1C2=O` [Physcion, 1,8-Dihydroxy-3-methoxy-6-methyl-9,10-anthracenedione], the inhibition at 10 ppm is 34.4%. `COc1cccc2c1C(=O)c1c(O)c3c(c(O)c1C2=O)C[C@@](O)(C(C)=O)C[C@@H]3O[C@H]1C[C@H](N)[C@H](O)[C@H](C)O1` [Daunomycin hydrochloride, (8S-cis)-8-Acetyl-10[(3-amino-2,3,6-trideoxy-alpha-L-lyxo-hexopyranosyl)oxy]-7,8,9,10-tetrahydro-6,8,11-trihydroxy-1-methoxy-5,12-naphthacenedione hydrochloride, reference compound]: the inhibition at 30 ppm stood at 62.9%. On to `Nc1cc2c(cc1Cl)C(=O)c1ccccc1C2=O` [2-Amino-3-chloroanthraquinone], for which the inhibition at 30 ppm is 3.9%. With `Cc1ccc(Nc2ccc(O)c3c2C(=O)c2ccccc2C3=O)cc1` [1-Hydroxy-4-(p-toluidino)-anthraquinone, 1-Hydroxy-4-[(4-methylphenyl)amino]-9,10-anthracene-dione], the inhibition at 30 ppm was 3.9%. The same measure, in the same setting: the value for `Cc1ccc2c(c1-c1c(C)ccc3c1C(=O)c1ccccc1C3=O)C(=O)c1ccccc1C2=O` [2,2'-Dimethyl-1,1'-bianthraquinone, 2,2'-Dimethyl-[1,1'-bianthracene]-9,9',10,10'-tetrone] was 59.7%.

Consider `Cc1c(C(=O)O)c(O)cc2c1C(=O)c1c(O)c([C@@H]3O[C@H](CO)[C@@H](O)[C@H](O)[C@H]3O)c(O)c(O)c1C2=O` [Carminic acid, 7-β-D-Glucopyranosyl-9,10-dihydro-3,5,6,8-tetra-hydroxy-1-methyl-9,10-dioxo-2-anthracene-carboxylic acid], for which the inhibition at 10 µg/mL stood at 0%. On to `Cc1cc(O)c2c(c1)C(=O)c1cccc(O)c1C2=O` [Chrysophanic acid, 1,8-Dihydroxy-3-methylanthraquinone], for which the inhibition at 30 ppm is 27.9%.

For `O=C1c2ccc(S(=O)(=O)O)cc2C(=O)c2ccc(S(=O)(=O)O)cc21` [Anthraquinone-2,6-disulfonic acid di Na salt], the inhibition at 10 ppm turned out to be 9.8%.

Consider `O=C1c2ccccc2C(=O)c2c([N+](=O)[O-])ccc(Nc3ccc([N+](=O)[O-])c4c3C(=O)c3ccccc3C4=O)c21` [1,1'-Iminobis(4-nitro-9,10-anthracenedione)], for which the inhibition at 30 ppm was 5.7%.

On to `O=C(O)c1cc2c(cc1C(=O)O)C(=O)c1ccccc1C2=O` [9,10-Dihydro-9,10-dioxo-2,3-anthracenedicarboxylic acid], for which the inhibition at 30 ppm was 10%. Same read-out and setting: the value for `O=C1c2ccccc2C(=O)c2c1cccc2-c1cccc2c1C(=O)c1ccccc1C2=O` [1,1'-Bianthraquinone, [1,1'-Bianthracene]-9,9'10,10'-tetrone] was 12.9%. Turning to `CN(C)CCOc1ccc2c(c1)C(=O)c1ccc(OCCN(C)C)cc1C2=O` [Tilorone analog R11,043DA, 2,6-Bis[2-(dimethylamino)ethoxy]-9,10-anthracenedione], the inhibition at 10 ppm turned out to be 98.7%. For the molecule `Nc1ccc(N)c2c1C(=O)c1cccc([N+](=O)[O-])c1C2=O` [1,4-Diamino-5-nitroanthraquinone], the inhibition at 30 ppm is 2.7 to 3%.

As for `O=C1c2c(O)c(O)c(S(=O)(=O)O)c(O)c2C(=O)c2c(O)c(O)c(S(=O)(=O)O)c(O)c21` [Acid alizarin blue BB, 9,10-Dihydro-1,3,4,5,7,8-hexahydroxy-9,10-dioxo-2,6-anthracenedisulfonic acid], the inhibition at 30 ppm stood at 0%. As for `O=C1c2ccccc2C(=O)c2c(O)ccc(O)c21` [1,4-Dihydroxyanthraquinone], the inhibition at 30 ppm was determined as 5.2%.

Still in this assay, the particulars now being: Table III, Example 3.
For `Nc1cccc2c1C(=O)c1ccccc1C2=O` [1-Aminoanthraquinone], the “% inhibition of sulfide formation” value is recorded as 72%.

Regarding `CC(C)NC(=N)NC(=N)Nc1cccc2c1C(=O)c1ccccc1C2=O` [N-[1-(9,10-dihydro-9,10-dioxo)anthracenyl]-N'-(1-methylethyl)imidodicarbonimidic diamide hydrochloride], the “% inhibition of sulfide formation” value is listed as 83%.

These data come from patent publication US5385842A, “Anthraquinones as inhibitors of sulfide production from sulfate-reducing bacteria” (E. I. Du Pont de Nemours and Company, priority 1993, dated 1995).
